Series [1] relates to middle cerebral artery occlusion (MCAO) cerebral ischemia-reperfusion model. As to the kind of experiment: MCAO cerebral ischemia-reperfusion model: neurological deficit score and cerebral infarct size. The format is in vivo, SD rats. The following applies: for Neurological deficit symptoms compared with the model group (in words): Example 7, FIG. 7a; for Neurological deficit symptoms compared with the model group (in words) / Cerebral infarct size compared with the model group (in words): intravenous, Edaravone 6 mg/kg, conjugate 3 mg/kg; for Cerebral infarct size compared with the model group (in words): Example 7, FIG. 7b. As for the experimental part: SD rats, male, SPF grade, weighing 270-300 g. The middle cerebral artery occlusion (MCAO) of cerebral ischemia-reperfusion model was prepared by using the intraluminal suture method in rats. Animals were anesthetized with gas (isoflurane), and then fixed them in a supine position. The skin was disinfected, and the right common carotid artery, external carotid artery, and internal carotid artery were separated from the midline incision in the neck. The vagus nerve was gently peeled off, and the external carotid artery was ligated and cut. The common carotid artery was clamped near the proximal end, and an incision was made from the distal end of the ligature line of the external carotid artery. The suture (model 2438-A5, purchased from Beijing Xinong Technology Co., LTD.) was inserted and passed through the bifurcation of the common carotid artery into the internal carotid artery. The suture was then slowly inserted until slight resistance was encountered (about 20 mm from the bifurcation), blocking the blood supply to the middle cerebral artery. The neck skin was sutured, disinfected, and the rat was returned to the cage. After 90 minutes of ischemia, the rat was anesthetized again, fixed on the rat board, and the neck skin was cut open to find the suture, which was gently removed. Reperfusion was performed, and the neck skin was sutured, disinfected, and the rat was returned to the cage for feeding.
The rats were divided into sham operation group, model group (administered PBS intravenously), Edaravone group (administered intravenously, 6 mg/kg), and PEG conjugate of lysyl bradykinin group (administered intravenously, 3 mg/kg). The rats were injected once after 2 hours of reperfusion.
The modified Bederson method was used to evaluate neurological defect symptoms.
Animals were anesthetized with 10% chloral hydrate, the brain tissue was removed, the olfactory bulbs, cerebellum and lower brainstem were removed, and the bloodstain on brain surface was washed with […]. After removing surface residual water, the brain tissue was placed at −80° C. for 7 minutes, took out and cut into coronal sections perpendicular to the visual cross plane, and sliced at intervals of 2 mm to the posterior direction. The brain slices were placed in fresh TTC (20 g/L) dye solution prepared with SPSS at 37° C. for 90 minutes. Normal brain tissue was stained deep red, while ischemic brain tissue appeared pale. After washing with SPSS, the brain slices were quickly arranged in sequence from front to back, residual water on the surface was absorbed, and photographed. The image analysis software (Image Tool) was used to delineate the ischemic area (white area) and the right side area on the photos for statistical analysis. The percentage of cerebral infarction area was calculated using the following formula:
Cerebral infarction area (%)=100×total ischemic area/total right hemisphere area.
Except for Table 7-6, the dosage of the other groups was 3 mg/kg (all the dosage was calculated based on peptides). The administration methods included intravenous injection and subcutaneous injection, and the injection was given once after 2 hours of reperfusion.
Based on the same model, the effect of PEG conjugate of lysyl bradykinin variant was investigated by both intravenous and subcutaneous injection at dose of […] (the dose was calculated based on polypeptide). […]

Series [2] can be described thus: Stability in SD rat serum system in vitro (UPLC-RP). How it is done: Assess the stability of lysyl bradykinin/bradykinin by evaluating its stability in serum system in vitro. 2 mg/ml peptide and SD rat serum were mixed at volume ratio of 85:15, incubated at 37° C. for 30 min, 60 min, 90 min, 120 min, 180 min, etc, terminate by adding 3% trichloroacetic acid (50% volume of the above mixture system with peptide and serum) and effectively remove matrix interference in the serum. Further monitor the degradation of peptide samples in the serum system to evaluate its stability basing on UPLC-RP-UV214 nm method. RP analysis method: Protein BEH C4 2.1×150 mm as chromatographic column, 1.7 μm, column temperature 30° C., mobile phase A: 0.1% TFA/H2O, mobile phase B: 0.1% TFA/ACN, gradient: 0-5 min, 5% B; 5-10 min, 5-40% B; 10-30 min, 40-60% B; 30-32 min, 60-100% B; 32 to 35 min, 5% B.
The stability of PEG conjugates of lysyl bradykinin and its variants was indirectly evaluated by evaluating their stability in serum system in vitro, as determined in Example 2.

For series [3] the following is noted: subcutaneous 30 mg in adults; cited from earlier work.
The target in the next series is T1, B2 receptor (Homo sapiens, UniProt P30411).
T1 construct: expressed in transfected cells; host or cells: CHO-K1
T1 sequence (P30411 1-391): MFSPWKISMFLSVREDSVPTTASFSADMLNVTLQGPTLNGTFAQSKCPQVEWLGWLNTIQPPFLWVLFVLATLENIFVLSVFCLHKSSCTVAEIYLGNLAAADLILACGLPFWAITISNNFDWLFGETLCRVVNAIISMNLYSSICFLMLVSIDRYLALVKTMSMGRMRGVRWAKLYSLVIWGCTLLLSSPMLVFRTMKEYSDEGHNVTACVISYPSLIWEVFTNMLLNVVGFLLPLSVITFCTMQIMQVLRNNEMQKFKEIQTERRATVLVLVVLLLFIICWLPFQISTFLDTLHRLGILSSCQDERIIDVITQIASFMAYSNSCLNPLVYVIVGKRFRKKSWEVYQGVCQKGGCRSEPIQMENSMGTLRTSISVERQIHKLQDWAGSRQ
As to the kind of experiment: B2 receptor reporter gene assay in B2-NFAT-CHO-K1 cells. The format is cell-based. To be noted: Table 3-1; relative activity calculated from EC50, wild type Lys-BK = 100%. The text has this: The pharmacological action of lysyl bradykinin/bradykinin in vivo is achieved by binding to B2 receptors and activating downstream signaling pathways
The cell line B2-NFAT-CHO-K1 stably transfected with B2 receptor reporter gene was constructed based on CHO-K1 host cells and the cell library was constructed. The B2-NFAT-CHO-K1 cell library was used to evaluate the binding activity of lysyl bradykinin/bradykinin or its variants or PEG modified products to B2 receptor in vitro.
Detection methods: The cells were cultured in 96-well plates at 5×10^4 cells/well, 37° C., 5% CO2 for 16-20 hours, and then gradient diluted standard and test solutions were added. After 5 hours, added Bio-Lite luciferase detection reagent and the chemiluminescence intensity was measured. GraphPad was used to make four-parameter equation curve and calculate the relative activity according to the EC50 value.
(§1) In vitro B2-receptor affinity activity and activity of activating downstream signaling pathway of PEG conjugates of lysyl bradykinin and its variants were tested, as in Example 3.

Series [4] deals with p-CREB and p-ERK1/2, B2 receptor downstream signals. Kind of series: Western blot of p-ERK1/2 and p-CREB in CHO-K1 cells overexpressing B2 receptor. The format is cell-based. The following applies: FIG. 5. As for the experimental part:
as §1
(In general: Immunoblotting shows a protein as a band on a membrane.)

Where [5] appears, read: Table 2-1, 2 mg/ml peptide : SD rat serum 85:15 v/v, 37° C., sampled 30-180 min.

Read-outs that look alike come from different tables or passages of the source. Where a SMILES comes first, the peptide text is derived from it. Where no end group is shown, it is not given here. [ ]: non-standard residue; d: D form. M‑SPA‑5K = straight-chain monomethoxy PEG succinimidyl propionate, about 5 kDa; 2Thi = N[C@@H](Cc1cccs1)C(=O)O

For the compound `CC1=NN(c2ccccc2)C(=O)C1` [Edaravone, reference compound], in series [1], the “Neurological deficit symptoms compared with the model group (in words)” value is given as “significant improvement in neurological deficit symptoms” and the “Cerebral infarct size compared with the model group (in words)” value is “significant improvement in cerebral infarct size”. Moreover, the “Neurological deficit symptom score” value in series [1] (Table 6-1, intravenous 6 mg/kg once 2 h after reperfusion, Mean ± SE, model group 3.13 ± 0.09) is 2.40 ± 0.13. In series [1] (Table 6-2, intravenous 6 mg/kg, Mean ± SE, model group 48.50 ± 1.66), the “Cerebral infarct size (%)” value is reported as 34.12 ± 2.35 %.
With `N=C(N)NCCC[C@H](NC(=O)[C@H](Cc1ccccc1)NC(=O)[C@@H]1CCCN1C(=O)[C@H](CO)NC(=O)[C@H](Cc1cccs1)NC(=O)CNC(=O)[C@@H]1CCCN1C(=O)[C@@H]1CCCN1C(=O)[C@H](CCCNC(=N)N)NC(=O)[C@H](CCCNC(=N)N)NC(=O)[C@@H](N)CCCCN)C(=O)O` [Lys-BKm11] (H-KRRPPG[2Thi]SPFR-OH; N-terminus and C-terminus assumed), in series [2] (setting [5]), the “Residual time in serum system” value is reported as 60~90 min.
Take `N=C(N)NCCC[C@H](NC(=O)[C@H](Cc1ccccc1)NC(=O)[C@@H]1CCCN1C(=O)[C@H](CO)NC(=O)[C@H](Cc1cccs1)NC(=O)CNC(=O)[C@@H]1CCCN1C(=O)[C@@H]1CCCN1C(=O)[C@H](CCCNC(=N)N)NC(=O)[C@H](CCCCN)NC(=O)[C@H](CCCNC(=N)N)NC(=O)[C@H](Cc1ccccc1)NC(=O)[C@@H]1CCCN1C(=O)[C@H](CO)NC(=O)[C@H](Cc1cccs1)NC(=O)CNC(=O)[C@@H]1CCCN1C(=O)[C@@H]1CCCN1C(=O)[C@H](CCCNC(=N)N)NC(=O)[C@@H](N)CCCCN)C(=O)O` [Lys-BKm14] (H-KRPPG[2Thi]SPFRKRPPG[2Thi]SPFR-OH; N-terminus and C-terminus assumed): the “Residual time in serum system” value in series [2] (setting [5]) is 90 to 120 min.
On the same count and under the same terms, with `N=C(N)NCCC[C@H](NC(=O)[C@H](Cc1ccccc1)NC(=O)[C@@H]1CCCN1C(=O)[C@H](CO)NC(=O)[C@H](Cc1cccs1)NC(=O)CNC(=O)[C@@H]1CCCN1C(=O)[C@@H]1CCCN1C(=O)[C@H](CCCNC(=N)N)NC(=O)[C@H](CCCNC(=N)N)NC(=O)[C@H](CCCNC(=N)N)NC(=O)[C@@H](N)CS)C(=O)O` [Lys-BKm16] (H-CRRRPPG[2Thi]SPFR-OH; N-terminus and C-terminus assumed) the figure was 60~90 min.
On to `NC(N)=NCCC[C@@H](N)C(=O)N[C@@H](CCCN=C(N)N)C(=O)N1CCC[C@H]1C(=O)N1C[C@H](O)C[C@H]1C(=O)NCC(=O)N[C@@H](Cc1cccs1)C(=O)N[C@@H](CO)C(=O)N1Cc2ccccc2C[C@@H]1C(=O)N1[C@H](C(=O)N[C@@H](CCCN=C(N)N)C(=O)O)C[C@@H]2CCCC[C@@H]21` [icatibant], for which, in series [3], the peak blood concentration was 405 ng/mL and the “time to peak blood concentration” value is 1.79 h.
Consider “Lys-BK-SPA5K: wild-type Lys-BK N-terminally single-modified with straight-chain M-SPA-5K PEG (about 5 kDa)”, for which the “Neurological deficit symptoms compared with the model group (in words)” value in series [1] is given as “significant improvement in neurological deficit symptoms”. The “Cerebral infarct size compared with the model group (in words)” value in series [1] is given as “significant improvement in cerebral infarction area”. For the same compound, the “Neurological deficit symptom score” value in series [1] (Table 6-1, intravenous 3 mg/kg once 2 h after reperfusion, Mean ± SE, model group 3.13 ± 0.09) is reported as 2.38 ± 0.15; in series [1] (Table 7-1, intravenous injection 3 mg/kg, model group 2.69 ± 0.12), 2.13 ± 0.18; in series [1] (Table 9-1, oral administration once 6 mg/kg, model group 2.12 ± 0.17), 1.60 ± 0.17. The “Cerebral infarct size (%)” value in series [1] (Table 6-2, intravenous 3 mg/kg, Mean ± SE, model group 48.50 ± 1.66) is 34.84 ± 2.90 %; in series [1] (Table 7-1, intravenous injection 3 mg/kg, model group 38.73 ± 1.99), 24.73 ± 3.15 %; in series [1] (Table 9-1, oral administration once 6 mg/kg, model group 29.23 ± 4.32) it was 22.82 ± 2.56%. Moreover, the “Residual time in serum system” value in series [2] is >360 min.
As for “Lys-BKm08: variant peptide PG{THI}SPFR, SEQ ID NO 9 (PG[2Thi]SPFR)”, the Relative affinity activity with B2 receptor is on record as <10%.
On the same count and under the same terms, with “Lys-BKm09: variant peptide {THI}SPFR, SEQ ID NO 10 ([2Thi]SPFR)” the figure was 0%.
Still for that read-out and setting: then “Lys-BKm10: variant peptide SPFR, SEQ ID NO 11”, with 0%.
On to “Lys-BKm13-SPA5K: Lys-BKm13 N-terminally single-modified with M-SPA-5K PEG ({M‑SPA‑5K}-CRRPPG[2Thi]SPFR)”, for which the “Activity of activating phosphorylation of ERK1/2 and CREB, PEG conjugates (in words)” value in series [4] is given as “highest activity among different peptide variants”. In addition, the “Neurological deficit symptoms and cerebral infarction area compared with the model group (in words)” value in series [1] (Example 9, intravenous and subcutaneous injection 4.5 mg/kg) is “significant improvement in neurological deficit symptoms and cerebral infarction area”. Also, the “Neurological deficit symptom score” value turned out to be 2.13 ± 0.15 in series [1] (Table 7-4, intravenous injection 3 mg/kg, model group 3.00 ± 0.10); 2.69 ± 0.12 in series [1] (Table 7-6, subcutaneous injection 4.5 mg/kg, model group 3.00 ± 0.09); 2.19 ± 0.16 in series [1] (Table 8-1, intravenous injection 4.5 mg/kg, model group 2.80 ± 0.11); 2.25 ± 0.17 in series [1] (Table 8-1, subcutaneous injection 4.5 mg/kg, model group 2.80 ± 0.11). In addition, the “Cerebral infarct size (%)” value was 23.54 ± 1.99 % in series [1] (Table 7-4, intravenous injection 3 mg/kg, model group 38.79 ± 2.01); 36.07 ± 2.47% in series [1] (Table 7-6, subcutaneous injection 4.5 mg/kg, model group 41.40 ± 1.83); 25.16 ± 2.36 % in series [1] (Table 8-1, intravenous injection 4.5 mg/kg, model group 38.45 ± 2.16); 26.06 ± 2.69 % in series [1] (Table 8-1, subcutaneous injection 4.5 mg/kg, model group 38.45 ± 2.16).

Source of the values: patent publication US20250295792A1, “POLYETHYLENE GLYCOL-MODIFIED FORM OF KININ OR DERIVATIVE THEREOF AND PHARMACEUTICAL USE THEREOF” (ZonHon Biopharma Institute, Inc., priority 2022, published 2025).
